Values of other authors, collected in US20080237028A1, “Nucleation in liquid, methods of use thereof and methods of generation thereof” (Hanoch KISLEV, priority 2006, published 2008).
Converted amounts (≈) assume the structure as drawn.

Key:
[1] = test system: biofilms of wild-type Pseudomonas aeruginosa; settings: compared to equivalent bacteria lacking ability to generate biofilm
[2] = test system: β-lactamase negative strain of Klebsiella pneumoniae; settings: planktonic
[3] = test system: β-lactamase negative strain of Klebsiella pneumoniae grown as a biofilm
[4] = test system: biofilm forming P. aeroginosa bacteria; settings: mature biofilm grown from bacteria treated with quorum sensing molecules; not in the untreated sample

OCl [sodium hypochlorite]
concentration increase required to kill biofilms [1]: 600 fold

CC1(C)S[C@@H]2[C@H](NC(=O)[C@H](N)c3ccccc3)C(=O)N2[C@H]1C(=O)O [Ampicillin]
minimum inhibitory concentration (MIC) [2]: 2 mg/L (≈ 5.72 µM)
increase in MIC ([3]; biofilm versus planktonic, 5000 μg/mL): 2500 fold
survival of biofilm under treatment ([3]; treated for 4 hours with 5000 μg/mL ampicillin): survives well

NC[C@H]1O[C@H](O[C@H]2[C@H](O)[C@@H](O[C@H]3O[C@H](CO)[C@@H](O)[C@H](N)[C@H]3O)[C@H](N)C[C@@H]2N)[C@H](N)C[C@@H]1O [tobramicyn]
bacteria death within biofilm [4]: complete bacteria death
